# Assays:
# [1] = Cytotoxicity in mock-infected MT-4 cells (MTT); assay type: cell-based; conditions: human, OD 540 nm, read-out: CC50 (50% cytotoxic concentration)
# Procedure: (§1) A rapid, sensitive and automated assay procedure was used for the in vitro evaluation of anti-HIV agents. An […] T4-cell line, MT-4, which was previously shown (Koyanagi et al., Int. J. Cancer, 36, 445-451, 1985) to be highly susceptible to and permissive for HIV infection, served as the target cell line. Inhibition of the HIV-induced cytopathic effect was used as the end point. The viability of both HIV- and mock-infected cells was assessed spectrophotometrically via the in situ reduction of 3-(4,5-dimethylthiazol-2-yl)-2,5-diphenyltetrazolium bromide (MTT). The 50% cytotoxic concentration (CC50 in M) was defined as the concentration of compound that reduced the absorbance of the mock-infected control sample by 50%. The percent protection achieved by the compound in HIV-infected cells was calculated by the following formula:
# (§2) [formula] whereby (ODT)HIV is the optical density measured with a given concentration of the test compound in HIV-infected cells; (ODC)HIV is the optical density measured for the control untreated HIV-infected cells; (ODC)MOCK is the optical density measured for the control untreated mock-infected cells; all optical density values were determined at 540 nm. The dose achieving 50% protection according to the above formula was defined as the 50% inhibitory concentration (IC50 in M). The ratio of CC50 to IC50 was defined as the selectivity index (SI).
# [2] = tested on: resistant mutants of HIV-1 (single and double mutants); assay: Replication inhibiting activity towards resistant mutants of HIV-1; assay type: cell-based; conditions: single and double mutants of HIV-1
# Procedure: Compound X was also tested for its replication inhibiting activity towards resistant mutants of HIV-1 (single and double mutants).
# HIV = assay: Determination of anti-HIV activity: inhibition of HIV-induced cytopathic effect in MT-4 cells (MTT); assay type: cell-based, Human Immunodeficiency Virus
# Procedure: as §1, §2
smiles,measurement,setting,value
"Cc1cc(/C=C/C#N)cc(C)c1Nc1ccnc(Nc2ccc(C#N)cc2)n1 [Compound X, 4-[[4-[[4-(2-cyanoethenyl)-2,6-dimethylphenyl]amino]-2-pyrimidinyl]amino]benzonitrile (E)]",CC50,[1],10 µM
same,replication inhibiting activity against resistant strains,[2],high activity
same,"SI (selectivity index, ratio of CC50 to IC50)",HIV,"25,119"
